The values that follow are results of earlier work, collected in paper PMC10643470, “Knockout or inhibition of USP30 protects dopaminergic neurons in a Parkinson’s disease mouse model” (Nature Communications, 2023).

The structures appear in SMILES notation.

Series [1] concerns SHSY5Y neuroblastoma cells. More on the design: method as in PMID 32636217. As to conditions: SHSY5Y neuroblastoma cells ref 42; cited from earlier work.
Series [2] deals with SHSY5Y neuroblastoma cells. More on the design: method as in PMID 32636217. As to conditions: SHSY5Y neuroblastoma cells ref 42; cited from earlier work. This is another data set of the same source.
In series [3] the test system is USP30. As to conditions: cited from earlier work.

Regarding `N#CN1CC[C@@H](NC(=O)c2cc(-c3ccccc3Oc3ccccc3)n[nH]2)C1` [FT3967385], the “Ubiquitylation of TOM20” value in series [1] was “significantly increases”. Also, in series [2], the Mitophagy levels result is on record as “significantly increases”.

`CC(C)(C)NS(=O)(=O)c1cccc2c(NC(=O)[C@H](Cc3ccccc3)NC(=O)C3CC3)cccc12` [MF-095]: in series [3], the “USP30 inhibition in biochemical assays” value is recorded as “identified as USP30 inhibitors”.

Turning to `CC(C)(C)NS(=O)(=O)c1cccc2c(NC(=O)[C@H](Cc3ccccc3)NC(=O)C3CCCCC3)cccc12` [MF-094], in series [3], the “USP30 inhibition in biochemical assays” value is reported as “identified as USP30 inhibitors”.
